Non-standard residues stand in square brackets, D forms with d. Nle = CCCC[C@H](N)C(=O)O
Key:
Format in all cases: cell-based, human
melanocyte strain 1513c = experiment: Tyrosinase activity as a measure of stability / residual effect, strain 1513c
Protocol: (§1) To determine the residual effect of CUV9900, as compared to NDP-MSH and α-MSH, on tyrosinase activity, melanocytes were treated with either CUV9900 or NDP-MSH at the concentrations previously described for a total of 3 days. Tyrosinase activity was measured at the end of the 3 days of treatment, and 2 and 4 days after maintenance of the melanocytes in the complete absence of any treatment.
(§2) With continued reference to FIGS. 7, 8 and 9, to determine the stability of CUV9900 versus that of NDP-MSH and α-MSH, melanocytes were treated with 1 nM of each peptide, namely with CUV9900, NDP-MSH and α-MSH, for a total of 6 days, or with 1 nM peptides that were incubated for 5 hours at 37° C. prior to addition to the cultures, every other day, for a total of 6 days. Tyrosinase activity was measured at the end of treatment. In the experiments, cell number represents the mean percent of control of 3 determinations/group±SE, and tyrosinase activity data represent the mean percent of control of 6 determinations±S.E. It should be noted that for the sake of reproducibility the experiment of strain 1513c of FIG. 9 was performed once more 6 months later than the experiment of FIG. 7.
(§3) Melanocytes were treated for 3 days with the designated concentrations of CUV9900, NDP-MSH, or MSH, then maintained in absence of peptides for 4 days. Tyrosinase activity was determined 3 days after treatment.
Comparison of stability of CUV9900, NDP-MSH and MSH was compared in 1513c, as shown in FIG. 7; the strain was treated for 6 days with 1 nM CUV9900, NDP-MSH or MSH with fresh medium and peptide replenished every 2 days. Melanocytes were treated according to the same experiment protocol but each peptide was incubated for 5-7 hours at 37 degrees Celsius. […] The assessment of tyrosinase was statistically different from control, as determined by ANOVA (p=<0.05).
(§4) Tyrosinase activity as a measure of stability is shown in Tables 4 to 6 below, wherein Table 4 is based on data derived from FIG. 7, Table 5 is based on data derived from FIG. 9, and Table 6 is based on data derived from FIG. 8: […]

melanocytic strain 103c = experiment: UV-induced generation of hydrogen peroxide (luminol), strain 103c; conditions: 1 nM, 105 mJ/cm^2 UV, 0, 30 and 45 minutes after irradiation
Excerpt: (§5) With reference to FIGS. 10 and 11, melanocytes were irradiated with a bank of FS 20 lamps, with 75% emission in the UVB, and 25% emission in the UVA spectra, with peak emission at 313 nm wavelength. Any emission of UVC rays from the UV source (FS 20 lamps) was blocked by Kodacel filter. Prior to irradiation, the culture medium was replaced by PBS, which was removed after UV exposure, and fresh medium added.
(§6) Melanocytes were irradiated with 105 mJ/cm^2 UV, and treated immediately while in PBS with 0, 1 nM α-MSH or 1 nM CUV9900. Generation of hydrogen peroxide, representative of reactive oxygen species (ROS), was determined by measuring the luminescence of luminol at 0, 30, and 45 min after UV exposure. Triplicate dishes were included in each group, and duplicate samples from each dish were used for measurement of hydrogen peroxide at each time point. Each data point represents the mean of 6 determinations/group±S.E.
(§7) In the melanocytic strain 1505b of FIG. 10 and melanocytic strain 103c of FIG. 11, hydrogen peroxide generation was assessed at 0, 30 and 45 minutes after UV irradiation.

melanocyte strain 103c = experiment: UV-induced apoptosis by Annexin V staining, strain 103c; conditions: 1 nM, 4 days prior and 1 day following 105 mJ/cm^2 UV
Protocol: With reference to FIGS. 12 and 13, melanocytes were maintained for the duration of the experiment in medium lacking bovine pituitary extract (BPE) to determine the survival effect of α-MSH or its analogs in the absence of the anti-apoptotic effect of TPA. Melanocytes were treated with 0, 1 nM α-MSH, 1 μM Forskolin, or 1 nM NDP-MSH or CUV9900 for 4 days prior to, and 24 h after exposure to a dose of 105 mJ/cm^2 UV, then stained for Annexin Va staining. The data are represented as percent increase above control, with triplicate dishes included in each group.
Comparison of the effect of CUV9900, NDP-MSH and MSH on the UV-induced apoptosis were made in the melanocyte strains 103c and melanocyte strain 1513c of FIGS. 12 and 13, respectively. Both strains were treated with 1 nM CUV9900, NDP and MSH, respectively for 4 days prior and 1 day following irradiation. Floating as well as attached cells were harvested and stained for Annexin V, and analyzed by flow cytometry.

melanocyte strain 1505b [1] = experiment: Tyrosinase activity as a measure of stability / residual effect, strain 1505b
Protocol: as §1, §2, §3, §4

Melanocytes = experiment: DNA damage as measured by cyclobutane pyrimidine dimers (CPD), flow cytometry; conditions: 48 h after 105 mJ/cm^2 UV
Protocol: Cyclobutane pyrimidine dimers (CPD), the major determinant of UV-induced DNA photoproducts, were detected using flow cytometry analysis.
Melanocytes were pretreated with 0 (control), 10 nM α-MSH or 1 nM NDP-MSH or 1 nM CUV9900 for 4 days prior to, and 2 days after exposure to 105 mJ/cm^2 UV, harvested 48 hours post irradiation, fixated with 70% ethanol, the DNA denatured with 1N HCl/0.2 mg/ml pepsin, then renaturated with sodium tetraborate. Melanocytes were blocked and incubated overnight at 4° C. with the anti-CPD antibody (diluted 1:500; TDM-2 clone), then with goat anti-mouse IgG Alexa Fluor 488 (Invitrogen, Carlsbad Calif.) for 1 hour, and finally resuspended in PBS containing RNase A and propidium iodide. Melanocytes were analyzed on a Coulter EPICS XL flow cytometer (Beckman Coulter) using a 488 nm argon ion laser A 525 band pass filter was used for the Alexa fluor 488 and a 620 band pass filter for the propidium iodide.

melanocyte strain 1505b [2] = experiment: Cell proliferation as a measure of stability, strain 1505b
melanocytic strain 1505b = experiment: UV-induced generation of hydrogen peroxide (luminol), strain 1505b; conditions: 1 nM
Excerpt: as §5, §6, §7

- Tyrosinase activity, Mean (melanocyte strain 1513c; strain 1513c [1], 1 nM, mean of columns 1-3): 215.7 % of control
- Tyrosinase activity, Mean [1 + 2] (melanocyte strain 1513c; strain 1513c, mean over experiments [1] and [2]): 284.2 % of control
- superior tyrosinase activity in comparison to MSH (melanocyte strain 1505b [1]): 18.7%
- superior tyrosinase activity in comparison to NDP-MSH (melanocyte strain 1505b [1]): 32.1%
- residual effects on tyrosinase activity 4 days after peptide removal, CUV9900 vs MSH (melanocyte strain 1505b [1]; 0.1 nM CUV9900 vs 1 nM MSH): equal
Substance: Ac-Nle-Glu His-D-Phe-Arg-Trp-NH2 (Ac-[Nle]EH[dF]RW-NH2; SMILES CCCC[C@H](NC(C)=O)C(=O)N[C@@H](CCC(=O)O)C(=O)N[C@@H](Cc1c[nH]cn1)C(=O)N[C@H](Cc1ccccc1)C(=O)N[C@@H](CCCNC(=N)N)C(=O)N[C@@H](Cc1c[nH]c2ccccc12)C(N)=O) [CUV9900, hexapeptide alpha-MSH analogue]
- tyrosinase activity, comparison in words (melanocyte strain 1513c; first experiment in strain 1513c (Table 4)): increased tyrosinase activity in comparison to Control and MSH, but marginally less than NDP-MSH
- effect of incubating the peptide on its stimulation of tyrosinase activity (melanocyte strain 1513c; strain 1513c, 1 nM peptide incubated 5-7 hours at 37 degrees Celsius): no effect on its ability to stimulate tyrosinase activity
- UV-induced hydrogen peroxide generation (melanocytic strain 103c): significant reduction of UV-induced hydrogen peroxide generation
- anti-apoptotic effect (Annexin V), comparison (melanocyte strain 103c): equal anti-apoptotic effect than NDP-MSH
- CPD cellular DNA damage, comparison in words (Melanocytes): less CPD cellular DNA damage in comparison with and NDP-MSH and slightly higher values than alpha-MSH
- more stable in comparison to MSH (cell proliferation) (melanocyte strain 1505b [2]): 2.6%
- more stable than NDP-MSH (cell proliferation) (melanocyte strain 1505b [2]): 10.16%
- Cell proliferation (cell number), column 2 (melanocyte strain 1505b [2]; 1 nM): 120% of control
- Cell proliferation (cell number), column 3 (melanocyte strain 1505b [2]; 1 nM): 108% of control
- hydrogen peroxide generation, comparison (melanocytic strain 1505b; 45 minutes after irradiation): lower hydrogen peroxide generation in comparison with both NDP-MSH and MSH
- UV-induced hydrogen peroxide generation (melanocytic strain 1505b; strain 1505b, 105 mJ/cm^2 UV, 0, 30 and 45 minutes after irradiation): significant reduction of UV-induced hydrogen peroxide generation

Reference: patent US20130331331A1, “HEXAPEPTIDE WITH IMPROVED ACTIVITY IN THE REPAIR OF CELLULAR DNA OF DERMAL CELLS” (priority 2011, published 2013)
